Measurements from the supplement of paper PMC7840683.
± gives the standard deviation of the averaged measurements.

System: HepaRG
Assay: LDH release cytotoxicity, % of total lysis control; higher = more cytotoxic
Settings: 48 h
Outline: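 On collagen I-coated 96-well plates, single-lot HepaRG cells were exposed for 48 h, in duplicate, to eight-point half-log series of test chemicals beginning at 100 µM. The exposure medium was serum-free induction medium with 0.5% DMSO, and total lysis wells got 0.1% Triton X. Resorufin fluorescence from the CytoTox-ONE reaction, read on a Tecan Safire, reported LDH in 50 µL of spent medium. Percent cytotoxicity came from normalization to on-plate vehicle and total lysis controls, averaged over the duplicates.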

O=[N+]([O-])C(CO)(CO)CO [2-(Hydroxymethyl)-2-nitro-1,3-propanediol]
Settings	LDH release cytotoxicity [%]
0.03162 µM	0.0153 ± 0.39
0.1 µM	-1.5 ± 0.4
0.3162278 µM	-1.73 ± 0.99
1 µM	-0.843 ± 0.29
3.16228 µM	-0.932 ± 1.1
10 µM	-1.24 ± 1.2
31.6228 µM	-0.797 ± 0.24
100 µM	0.918 ± 1.3

CCCCCCCCCCCCCCCCO [1-Hexadecanol]
Settings	LDH release cytotoxicity [%]
0.0320971 µM	-2.16 ± 0.6
0.1015 µM	-2.95 ± 0.21
0.320971 µM	-2.48 ± 0.093
1.015 µM	-3.51 ± 0.26
3.2097118 µM	-3.1 ± 0.27
10.15 µM	-2.1 ± 0.81
32.0971 µM	-1.56 ± 0.39
101.5 µM	3.36 ± 0.21

CCC(NC(=O)c1cc(F)ccc1NS(=O)(=O)c1cccc2cccnc12)c1ccccc1 (configuration not stated) [AVE3295]
Settings	LDH release cytotoxicity [%]
0.0301998 µM	-1.81 ± 0.3
0.0955 µM	-1.66 ± 1.1
0.301997 µM	-1.7 ± 0.59
0.955 µM	-1.55 ± 0.55
3.01998 µM	-1.75 ± 0.27
9.55 µM	-2.12 ± 0.47
30.199752 µM	-1.2 ± 0.89
95.5 µM	4.69 ± 0.74

COS(C)(=O)=O [Methyl methanesulfonate]
Settings	LDH release cytotoxicity [%]
0.03162 µM	-1.45 ± 0.74
0.1 µM	-1.11 ± 0.35
0.3162278 µM	-1.7 ± 0.1
1 µM	-0.993 ± 1.2
3.16228 µM	-1.33 ± 0.4
10 µM	-1.07 ± 0.89
31.6228 µM	-1.15 ± 0.067
100 µM	0.825 ± 0.66

Clc1ccc(C(Cl)(Cl)Cl)cc1 [4-Chlorobenzotrichloride]
Settings	LDH release cytotoxicity [%]
0.03162 µM	-1.85 ± 0.71
0.1 µM	-1.72 ± 0.36
0.3162278 µM	-2.4 ± 0.4
1 µM	-1.68 ± 1.3
3.16228 µM	-1.91 ± 0.86
10 µM	-1.134 ± 0.011
31.6228 µM	-0.341 ± 0.31
100 µM	27.7 ± 9.1

CCNc1nc(NC(C)C)nc(SC)n1 [Ametryn]
Settings	LDH release cytotoxicity [%]
0.03162 µM	-0.705 ± 0.77
0.1 µM	-1.179 ± 0.0064
0.3162278 µM	-1.07 ± 0.34
1 µM	-1.09 ± 0.47
3.16228 µM	-1.44 ± 0.021
10 µM	-0.756 ± 0.46
31.6228 µM	-0.965 ± 0.14
100 µM	-0.133 ± 0.12

Cc1ccc(C)c(O)c1 [2,5-Dimethylphenol]
Settings	LDH release cytotoxicity [%]
0.03162 µM	-1.02 ± 1
0.1 µM	-1.37 ± 0.38
0.3162278 µM	-1.74 ± 0.34
1 µM	-1.34 ± 0.19
3.16228 µM	-1.4 ± 0.44
10 µM	-0.854 ± 0.043
31.6228 µM	-0.822 ± 0.1
100 µM	0.0909 ± 0.18

CCC(C)(C)C(=O)OC1=C(c2ccc(Cl)cc2Cl)C(=O)OC12CCCCC2 [Spirodiclofen]
Settings	LDH release cytotoxicity [%]
0.03162 µM	-0.904 ± 0.1
0.1 µM	-1.21 ± 1.1
0.3162278 µM	-0.287 ± 0.5
1 µM	-1.32 ± 0.39
3.16228 µM	-1.74 ± 0.89
10 µM	0.0779 ± 0.41
31.6228 µM	-1.05 ± 0.14
100 µM	0.552 ± 0.59

Clc1ccccc1Cl [1,2-Dichlorobenzene]
Settings	LDH release cytotoxicity [%]
0.03162 µM	-1.68 ± 0.72
0.1 µM	-1.12 ± 0.22
0.3162278 µM	-2 ± 0.56
1 µM	-1.81 ± 0.094
3.16228 µM	-1.83 ± 0.1
10 µM	-1.2 ± 0.57
31.6228 µM	-1.06 ± 0.67
100 µM	-0.133 ± 0.15

Cc1cccc([N+](=O)[O-])c1 [3-Nitrotoluene]
Settings	LDH release cytotoxicity [%]
0.0324133 µM	-0.599 ± 0.21
0.1025 µM	-1.561 ± 0.014
0.324134 µM	-1.45 ± 0.26
1.025 µM	-0.805 ± 0.87
3.24133 µM	-1.27 ± 0.12
10.25 µM	-0.551 ± 0.69
32.4133 µM	-0.321 ± 0.16
102.5 µM	0.844 ± 1.1

CCn1nc(C)c2c1C(=O)NCC(c1ccc(O)cc1)=N2
Settings	LDH release cytotoxicity [%]
0.03162 µM	-0.976 ± 1.2
0.1 µM	-1.16 ± 0.44
0.3162278 µM	-0.653 ± 0.074
1 µM	-0.0547 ± 1
3.16228 µM	0.209 ± 0.17
10 µM	0.546 ± 0.34
31.6228 µM	1.6 ± 0.75
100 µM	3.89 ± 0.91

Nc1nc(Cl)nc2c1ncn2C1CC(O)C(CO)O1 (configuration not stated) [Cladribine]
Settings	LDH release cytotoxicity [%]
0.03162 µM	1.26 ± 0.91
0.1 µM	0.387 ± 1.1
0.3162278 µM	1.42 ± 0.94
1 µM	1.39 ± 0.35
3.16228 µM	3.14 ± 0.5
10 µM	7.59 ± 0.6
31.6228 µM	10.9 ± 2
100 µM	13.4 ± 1

OCCCBr [3-Bromo-1-propanol]
Settings	LDH release cytotoxicity [%]
0.03162 µM	0.25 ± 1.2
0.1 µM	-0.845 ± 0.1
0.3162278 µM	-1.144 ± 0.0048
1 µM	-0.314 ± 0.33
3.16228 µM	-0.692 ± 0.86
10 µM	-0.0559 ± 0.79
31.6228 µM	-0.26 ± 0.065
100 µM	9.22 ± 1.3

NC(=O)NO [Hydroxyurea]
Settings	LDH release cytotoxicity [%]
0.03162 µM	-2.94 ± 1.1
0.1 µM	-1.59 ± 1.4
0.3162278 µM	-2.4 ± 0.64
1 µM	-2.62 ± 0.18
3.16228 µM	-1.83 ± 0.11
10 µM	-1.79 ± 0.38
31.6228 µM	-0.278 ± 0.73
100 µM	2.82 ± 1.5

CCC(C)(c1ccc(O)cc1)c1ccc(O)cc1 [Bisphenol B]
Settings	LDH release cytotoxicity [%]
0.03162 µM	-0.0728 ± 0.78
0.1 µM	0.29 ± 0.38
0.3162278 µM	0.714 ± 0.49
1 µM	2.34 ± 1.5
3.16228 µM	1.11 ± 0.43
10 µM	1.29 ± 0.37
31.6228 µM	1.29 ± 0.25
100 µM	4.62 ± 1.9

Cc1ccc(N=C=O)cc1N=C=O [Toluene 2,4-diisocyanate]
Settings	LDH release cytotoxicity [%]
0.03162 µM	-1.18 ± 0.59
0.1 µM	-1.26 ± 0.15
0.3162278 µM	-1.96 ± 0.45
1 µM	-1.55 ± 0.2
3.16228 µM	-1.52 ± 0.076
10 µM	-0.759 ± 0.27
31.6228 µM	4.408 ± 0.042
100 µM	11.5 ± 1.5

CCC(=O)Nc1ccc(Cl)c(Cl)c1 [Propanil]
Settings	LDH release cytotoxicity [%]
0.03162 µM	-0.963 ± 0.057
0.1 µM	-0.318 ± 1.1
0.3162278 µM	-0.815 ± 0.19
1 µM	-1.73 ± 0.56
3.16228 µM	-0.844 ± 0.53
10 µM	0.163 ± 0.67
31.6228 µM	0.666 ± 0.14
100 µM	4.33 ± 0.28

O=C(NC(c1ccccc1)C1CCCCN1)c1cccc(C(F)(F)F)c1Cl (configuration not stated)
Settings	LDH release cytotoxicity [%]
0.03162 µM	-1.29 ± 1.3
0.1 µM	-1.57 ± 0.071
0.3162278 µM	-0.0611 ± 0.068
1 µM	-1.79 ± 0.54
3.16228 µM	-0.61 ± 1.2
10 µM	0.734 ± 0.85
31.6228 µM	24.2 ± 1.3
100 µM	86.2 ± 3.2

CN(C)N=O [N-Nitrosodimethylamine]
Settings	LDH release cytotoxicity [%]
0.02893 µM	0.0505 ± 1.7
0.0915 µM	-1.57 ± 0.31
0.289348 µM	-0.817 ± 0.056
0.915 µM	-1.29 ± 0.63
2.89348 µM	-2.32 ± 1.1
9.15 µM	-0.967
28.9348 µM	-0.682 ± 0.11
91.5 µM	0.3 ± 0.0093
